Activity calls are given as the source filed them. The calls are words filed in the database; no cut-off is given here.
Assays:
LoVo = experiment: Cytotoxicity against human LoVo cells expressing wild type p53 assessed as induction of cell death at 20 uM incubated for 72 hrs by resazurin based analysis; assay type: functional
HCT-116 [1] = experiment: Upregulation of p53 protein expression in human HCT-116 cells expressing wild type p53 at 20 uM incubated for 24 hrs by western blot analysis; assay type: functional, cell-based
HCT-116 [2] = experiment: Induction of ferroptosis in human HCT-116 cells assessed as increase in iron content at 20 uM incubated for 24 hrs; assay type: functional, cell-based
HCT-116 [3] = experiment: Induction of intracellular ROS generation in human HCT-116 cells at 20 uM incubated for 24 hrs by DCFH-DA staining based fluorescence analysis; assay type: functional, cell-based
HT-29 = experiment: Cytotoxicity against human HT-29 cells expressing p53 mutant assessed as induction of cell death at 20 uM incubated for 72 hrs by resazurin based analysis; assay type: functional
HCT-116 [4] = experiment: Induction of apoptosis in human HCT-116 cells expressing wild type p53 assessed as late apoptotic cells at 10 uM incubated for 48 hrs by Annexin V-FITC/PI staining based flow cytometry (reference value: 5.06%); assay type: functional
HCT-116 [5] = experiment: Downregulation of MDM2 protein expression in human HCT-116 cells at 10 uM incubated for 24 hrs by western blot analysis; assay type: functional, cell-based
HCT-116 [6] = experiment: Potentiation of 5-FU-induced cytotoxicity in human HCT-116 cells assessed as reduction in cell viability at 10 uM incubated for 24 hrs in presence of 10 uM 5-FU by resazurin based analysis; assay type: functional
HCT-116 [7] = experiment: Upregulation of p21 protein expression in human HCT-116 cells at 20 uM incubated for 24 hrs by western blot analysis; assay type: functional, cell-based
HCT-116 [8] = experiment: Induction of apoptosis in human HCT-116 cells expressing wild type p53 assessed as late apoptotic cells at 20 uM incubated for 48 hrs by Annexin V-FITC/PI staining based flow cytometry (reference value: 5.37%); assay type: functional
HCT-116 [9] = experiment: Induction of cell cycle arrest in human HCT-116 cells expressing wild type p53 assessed as accumulation of cells at G1 phase at 10 uM incubated for 24 hrs by PI staining based flow cytometry (reference value: 62.5 to 66.7%); assay type: functional
SW-620 = experiment: Cytotoxicity against human SW620 cells expressing p53 mutant assessed as induction of cell death at 20 uM incubated for 72 hrs by resazurin based analysis; assay type: functional
HCT-116 [10] = experiment: Cytotoxicity against human HCT-116 cells assessed as reduction in cell viability at 10 uM incubated for 72 hrs in presence of autophagy inhibitor, 3-methyladenine by resazurin-based analysis; assay type: functional
HCT-116 [11] = experiment: Upregulation of p53 protein expression in human HCT-116 cells expressing wild type p53 at 20 uM by western blot analysis; assay type: functional, cell-based; conditions: time 0.5-16 hrs, TDE = time-dependent effect
HCT-116 [12] = experiment: Induction of cell cycle arrest in human HCT-116 cells expressing wild type p53 assessed as accumulation of cells at S phase at 10 uM incubated for 24 hrs by PI staining based flow cytometry (reference value: 0.52 to 3.83%); assay type: functional
HCT-116 [13] = experiment: Induction of apoptosis in human HCT-116 cells expressing wild type p53 assessed as necrotic cells at 10 uM incubated for 48 hrs by Annexin V-FITC/PI staining based flow cytometry (reference value: 0.44%); assay type: functional
HCT-116 [14] = experiment: Induction of mitochondrial membrane potential depolarization in human HCT-116 cells assessed as reduction in mitochondrial membrane potential at 20 uM incubated for 24 hrs by JC-1 staining based fluorescence analysis; assay type: functional, cell-based
HCT-116 [15] = experiment: Cytotoxicity against human HCT-116 cells assessed as reduction in cell viability at 10 uM incubated for 72 hrs in presence of apoptosis inhibitor, Z-VAD-FMK by resazurin-based analysis; assay type: functional
[16] = molecular target: Cellular tumor antigen p53 (Homo sapiens) (UniProt P04637); experiment: Inhibition of p53 DNA binding activity in human HCT-116 cells assessed as reduction in DNA-protein complex formation at 20 uM incubated for 24 hrs by electrophoretic mobility shift analysis; assay type: cell-based
HCT-116 [17] = experiment: Cytotoxicity against human HCT-116 cells expressing wild type p53 assessed as induction of cell death at 20 uM incubated for 72 hrs by resazurin based analysis; assay type: functional
HCT-116 [18] = experiment: Upregulation of p53 protein expression in human HCT-116 cells expressing wild type p53 incubated for 24 hrs by western blot analysis; assay type: functional, cell-based; conditions: dose 2.5-20 µM
HCT-116 [19] = experiment: Upregulation of acetylated p53 protein expression in human HCT-116 cells expressing wild type p53 at 20 uM incubated for 24 hrs by western blot analysis; assay type: functional, cell-based
HCT-116 [20] = experiment: Induction of cell cycle arrest in human HCT-116 cells expressing wild type p53 assessed as accumulation of cells at G2 phase at 5 uM incubated for 24 hrs by PI staining based flow cytometry (reference value: 30.7 to 31.5%); assay type: functional
HCT-116 [21] = experiment: Upregulation of BAX protein expression in human HCT-116 cells at 20 uM incubated for 24 hrs by western blot analysis; assay type: functional, cell-based
HCT-116 [22] = experiment: Cytotoxicity against human HCT-116 cells assessed as reduction in cell viability at 10 uM incubated for 72 hrs in presence of ferroptosis inhibitor, ferrostatin-1 by resazurin-based analysis; assay type: functional
HCT-116 [23] = experiment: Upregulation of p53 protein expression in human HCT-116 cells at 10 uM incubated for 24 hrs in presence of 10 uM 5-FU by western blot analysis; assay type: functional, cell-based
HCT-116 [24] = experiment: Induction of cell cycle arrest in human HCT-116 cells expressing wild type p53 assessed as accumulation of cells at G1 phase at 5 uM incubated for 24 hrs by PI staining based flow cytometry (reference value: 62.5 to 66.7%); assay type: functional
HCT-116 [25] = experiment: Induction of cell cycle arrest in human HCT-116 cells expressing wild type p53 assessed as accumulation of cells at G1 phase at 20 uM incubated for 24 hrs by PI staining based flow cytometry (reference value: 62.5 to 66.7%); assay type: functional
HCT-116 [26] = experiment: Downregulation of MDM2 protein expression in human HCT-116 cells at 10 uM incubated for 24 hrs in presence of 10 uM 5-FU by western blot analysis; assay type: functional, cell-based
HCT-116 [27] = experiment: Induction of cell cycle arrest in human HCT-116 cells expressing wild type p53 assessed as accumulation of cells at S phase at 20 uM incubated for 24 hrs by PI staining based flow cytometry (reference value: 0.52 to 3.83%); assay type: functional
RKO = experiment: Cytotoxicity against human RKO cells expressing wild type p53 assessed as induction of cell death at 20 uM incubated for 72 hrs by resazurin based analysis; assay type: functional
HCT-116 [28] = experiment: Increase in mitochondrial complex I activity in human HCT-116 cells at 20 uM incubated for 24 hrs; assay type: functional, cell-based
HCT-116 [29] = experiment: Induction of apoptosis in human HCT-116 cells expressing wild type p53 assessed as viable cells at 20 uM incubated for 48 hrs by Annexin V-FITC/PI staining based flow cytometry (reference value: 82.2%); assay type: functional; conditions: read-out: Activity
HCT-116 [30] = experiment: Upregulation of phosphorylated p53 expression in human HCT-116 cells expressing wild type p53 at 20 uM incubated for 24 hrs by western blot analysis; assay type: functional, cell-based
HCT-116 [31] = experiment: Induction of cell cycle arrest in human HCT-116 cells expressing wild type p53 assessed as accumulation of cells at G2 phase at 10 uM incubated for 24 hrs by PI staining based flow cytometry (reference value: 30.7 to 31.5%); assay type: functional

Sequence of Cellular tumor antigen p53 (Homo sapiens) (P04637 whole entry, looked up): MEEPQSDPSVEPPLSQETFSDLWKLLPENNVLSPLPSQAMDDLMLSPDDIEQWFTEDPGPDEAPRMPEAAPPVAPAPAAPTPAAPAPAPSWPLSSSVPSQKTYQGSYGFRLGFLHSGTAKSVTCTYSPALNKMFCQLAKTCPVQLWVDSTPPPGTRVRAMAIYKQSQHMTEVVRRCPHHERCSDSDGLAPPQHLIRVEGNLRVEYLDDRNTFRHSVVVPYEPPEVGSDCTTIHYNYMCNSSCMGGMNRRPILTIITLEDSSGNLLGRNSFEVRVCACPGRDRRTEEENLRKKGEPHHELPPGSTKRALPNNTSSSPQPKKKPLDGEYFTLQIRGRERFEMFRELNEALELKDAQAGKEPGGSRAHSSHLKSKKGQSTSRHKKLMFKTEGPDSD

| SMILES | Activity (LoVo) | Activity (HCT-116 [1]) | Activity (HCT-116 [2]) | Activity (HCT-116 [3]) | Activity (HT-29) | Activity (HCT-116 [4]) [%] | inhibition (HCT-116 [5]) | Activity (HCT-116 [6]) | Activity (HCT-116 [7]) | Activity (HCT-116 [8]) [%] | Activity (HCT-116 [9]) [%] | Activity (SW-620) | Activity (HCT-116 [10]) | Activity (HCT-116 [11]) | Activity (HCT-116 [12]) [%] | Activity (HCT-116 [13]) [%] | Activity (HCT-116 [14]) | Activity (HCT-116 [15]) | inhibition [16] | Activity (HCT-116 [17]) | also measured |
| --- | --- | --- | --- | --- | --- | --- | --- | --- | --- | --- | --- | --- | --- | --- | --- | --- | --- | --- | --- | --- | --- |
| COc1ccc(-c2cc(=O)c3c(O)cc(O)cc3o2)cc1-c1c(O)cc(O)c2c(=O)cc(-c3ccc(O)cc3)oc12 [BILOBETIN] | Active | Active | Active | Active | inactive | 3.58 | Active | Active | inactive | 6.94 | 59.9 | inactive | inactive | Tde | 4.88 | 0.46 | Active | inactive | Active | Active | Activity (HCT-116 [18]): Dose-Dependent Effect; Activity (HCT-116 [19]): Active; Activity (HCT-116 [20]): 32.7%; Activity (HCT-116 [21]): inactive; Activity (HCT-116 [22]): inactive; Activity (HCT-116 [23]): Active; Activity (HCT-116 [24]): 64.4%; Activity (HCT-116 [25]): 51.2%; inhibition (HCT-116 [26]): Active; Activity (HCT-116 [27]): 7.24%; Activity (RKO): Active; Activity (HCT-116 [28]): Active; viability at 20 µM (HCT-116 [29]): 52.6%; Activity (HCT-116 [30]): Active; Activity (HCT-116 [31]): 33.4% |
| COc1cc(O)c2c(=O)cc(-c3ccc(OC)c(-c4c(O)cc(O)c5c(=O)cc(-c6ccc(O)cc6)oc45)c3)oc2c1 [GINKGETIN] | Active | Active | Active | Active | inactive | 5.69 | Active | Active | inactive | 10.5 | 51.2 | inactive | inactive | Tde | 3.37 | 0.99 | Active | inactive | Active | Active | Activity (HCT-116 [18]): Dose-Dependent Effect; Activity (HCT-116 [19]): Active; Activity (HCT-116 [20]): 39.2%; Activity (HCT-116 [21]): inactive; Activity (HCT-116 [22]): inactive; Activity (HCT-116 [23]): Active; Activity (HCT-116 [24]): 58.1%; Activity (HCT-116 [25]): 45.3%; inhibition (HCT-116 [26]): Active; Activity (HCT-116 [27]): 1.47%; Activity (RKO): Active; Activity (HCT-116 [28]): Active; viability at 20 µM (HCT-116 [29]): 55.4%; Activity (HCT-116 [30]): Active; Activity (HCT-116 [31]): 43.1% |
| COc1ccc(-c2cc(=O)c3c(O)cc(O)c(-c4cc(-c5cc(=O)c6c(O)cc(O)cc6o5)ccc4OC)c3o2)cc1 [ISOGINKGETIN] | Active | Active | Active | Active | inactive | 2.58 | Active | Active | inactive | 9.54 | 52.6 | inactive | inactive | Tde | 1.38 | 0.92 | Active | inactive | Active | Active | Activity (HCT-116 [18]): Dose-Dependent Effect; Activity (HCT-116 [19]): Active; Activity (HCT-116 [20]): 36.7%; Activity (HCT-116 [21]): inactive; Activity (HCT-116 [22]): inactive; Activity (HCT-116 [23]): Active; Activity (HCT-116 [24]): 58.4%; Activity (HCT-116 [25]): 47.3%; inhibition (HCT-116 [26]): Active; Activity (HCT-116 [27]): 3.82%; Activity (RKO): Active; Activity (HCT-116 [28]): Active; viability at 20 µM (HCT-116 [29]): 49.1%; Activity (HCT-116 [30]): Active; Activity (HCT-116 [31]): 44.5% |
